Experimental data: paper PMC4598770, “Galectin Binding to Neo-Glycoproteins: LacDiNAc Conjugated BSA as Ligand for Human Galectin-3” (Biomolecules, 2015)

Target: T1, human Gal-3 (Homo sapiens, UniProt P17931)
T1 construct: made in house; host or cells: E. coli Rosetta (DE3) pLysS
Experiment: Competitive inhibition of Gal-3 binding to immobilized ASF
Conditions: for IC50: 5 µM galectin-3 binding to immobilized ASF; for Relative potency: related to the corresponding tetrasaccharide (4 or 5); for Relative potency per glycan: related to the corresponding tetrasaccharide and to one binding site
Protocol: Neo-glycoproteins were used as inhibitors of Gal-3 to ASF binding in competitive inhibition assays performed as described. The standard glycoprotein ASF (Sigma-Aldrich) was immobilized in microtiter plates as described above for neo-glycoproteins. After blocking, 5 µM Gal-3 and varying concentration of 11j, 11k, 11g and 12j, 12k, 12g were simultaneously incubated for 1 h followed by detection of bound Gal-3 as described above. Measured data were fitted and IC50 values calculated using Sigma Plot software (Systat software GmbH).

T1 sequence (P17931 whole entry): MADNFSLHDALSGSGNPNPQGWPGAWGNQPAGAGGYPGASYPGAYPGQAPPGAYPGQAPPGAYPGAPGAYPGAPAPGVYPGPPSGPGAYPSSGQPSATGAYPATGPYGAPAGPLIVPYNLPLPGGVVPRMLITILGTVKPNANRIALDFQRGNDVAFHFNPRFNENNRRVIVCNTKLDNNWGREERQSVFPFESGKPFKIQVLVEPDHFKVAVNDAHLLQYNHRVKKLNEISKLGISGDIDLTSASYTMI

IC50 [µM] | Relative potency (5 µM galectin-3, ASF) | Relative potency per glycan (5 µM galectin-3, ASF) | Higher inhibition of Gal-3 binding compared to 4 (5 µM galectin-3, ASF, compared with LacNAc-LacNAc (4)) [fold] | SMILES
13 ± 3.43 | 1.0 ± 0.26 | 1.0 ± 0.26 |  | CC(=O)N[C@@H]1[C@@H](O)[C@H](O[C@@H]2O[C@H](CO)[C@H](O)[C@H](O[C@@H]3O[C@H](CO)[C@@H](O[C@@H]4O[C@H](CO)[C@H](O)[C@H](O)[C@H]4O)[C@H](O)[C@H]3NC(C)=O)[C@H]2O)[C@@H](CO)O[C@H]1NC(=S)NCCNC(=O)OC(C)(C)C [Compound 4, Galβ1, 4GlcNAcβ1, 3Galβ1, 4GlcNAcβ1-linker-NH2-tBoc]
7.23 ± 0.87 | 1.0 ± 0.12 | 1.0 ± 0.12 | 1.5 | CC(=O)N[C@@H]1[C@@H](O)[C@H](O[C@@H]2O[C@H](CO)[C@H](O)[C@H](O[C@@H]3O[C@H](CO)[C@@H](O[C@@H]4O[C@H](CO)[C@H](O)[C@H](O)[C@H]4NC(C)=O)[C@H](O)[C@H]3NC(C)=O)[C@H]2O)[C@@H](CO)O[C@H]1NC(=S)NCCNC(=O)OC(C)(C)C [Compound 5, GalNAcβ1,4GlcNAcβ1,3Galβ1,4GlcNAcβ1-linker-NH2-tBoc]
